Where two headings read alike, the source gives them in different places.

What is called EC50 is the concentration giving half of the maximal effect. By Emax is commonly meant the size of the effect at its maximum, as opposed to the concentration needed.

One experiment relates to C6 rat glioma cells. The experiment in a line: Viability assay (MTT) in C6 cells. The experiment is classed as cell-based. The following applies: for EC50: vehicle. The protocol: Cell viability was determined by 3-(4,5-dimethylthiazol-2-yl)-2,5-diphenyltetrazolium bromide (MTT) assay as described. Briefly, C6 cells were seeded into 96-well plates at 20,000 cells/well, incubated overnight, serum-starved for 4 h, and treated for 72 hours with cisplatin in the presence of CYM-5478 or vehicle.

In the next experiment the test system is ROS in C6 cells. Description: ROS assay (CellROX) in C6 cells. In kind it is cell-based, rat. The following applies: for effect on CYM-5478-mediated attenuation of cisplatin-induced ROS: cisplatin + CYM-5478; for effect on cisplatin-induced ROS: co-administered with cisplatin, CYM-5478 10 μM. The protocol: Cells were plated in clear-bottom, black-walled 96-well plates at ~50% confluence, incubated overnight, then treated overnight with cisplatin in the presence of the indicated compounds. All conditions were vehicle-controlled (0.1% DMSO). […] Cells were photographed with a 20X objective lens, 3 fields per well, 3 wells per condition. Quantification was performed using ImageJ software, but dividing the total integrated density of CellROX® labelling by the number of cells per Hoechst staining.

The test system of experiment [1] is MDA-MB-231 breast cancer cells. The experiment in a line: Cell rounding assay in MDA-MB-231 cells (endogenous S1P2). The experiment is classed as cell-based. The following applies: for cell rounding response: serum-starved MDA-MB-231 cells, S1P 1 μM. The method, then: Cell rounding was performed essentially as described. […] After 15 min, the cells were fixed and stained with fluorescein phalloidin and DAPI for cell morphology. The number of cells with retracted neurites and the number of total cells were counted in three separate fields for each sample, and the percentage of cells with retracted neurites was calculated.

The next experiment has as its target T1, S1P1-EGFP (Homo sapiens, UniProt P21453).
T1 construct: expressed in transfected cells
Description: Receptor internalization assay, S1P1-EGFP. In kind it is cell-based. The conditions noted are these: 1 μM ligand.

The subject of experiment [2] is NOX3 complex (Nox3, NoxO1, NoxA1). Description: NOX3 activity assay (luminol) in transfected HEK293 cells. In kind it is cell-based. The following applies: HEK293, S1P 1 μM, 15 minutes. The protocol: NOX3 activity was determined as previously described. […] Indicated values were taken 15 minutes following stimulation.
The next experiment deals with T2, S1P3-EGFP (Homo sapiens, UniProt Q99500).
T2 construct: expressed in transfected cells
The experiment in a line: Receptor internalization assay, S1P3-EGFP. The experiment is classed as cell-based. The following applies: 1 μM ligand.

The next experiment has as its target T3, S1P2-EGFP (Homo sapiens, UniProt O95136).
T3 construct: expressed in transfected cells
Description: Receptor internalization assay, S1P2-EGFP. The following applies: 1 μM ligand. In kind it is cell-based.

In another experiment the target is T4, S1P5 (Homo sapiens, UniProt Q9H228).
T4 construct: expressed in transfected cells; host or cells: HEK293
The experiment in a line: TGFα-shedding assay, S1P5. The experiment is classed as cell-based. The method, then:
(§1) The TGFα-shedding assay was performed essentially as described. Briefly, HEK293 cells were co-transfected with the indicated receptor expression construct and TGFα-alkaline phosphatase using Lipofectamine 2000 reagent (cat #11668019, Thermo Fisher), collected by trypsinization, washed with phosphate-buffered saline, and seeded into 96-well plates in Hank’s Balanced Saline Solution (HBSS). To improve assay sensitivity, S1P1 and S1P2 cells were co-transfected with Gαq/i1 chimeric protein, and S1P4 and S1P5 were co-transfected with Gαq/16, as previously described. Cells were stimulated with ligand for 1 hour, then alkaline phosphatase activity was detected in cells and in the supernatant. Receptor activity (% shedding) was defined as alkaline phosphatase activity of the supernatant/total alkaline phosphatase activity (cells + supernatant). Data processing and statistical analyses were performed with GraphPad Prism 6.

The target of the next experiment is T5, S1P1 (Homo sapiens, UniProt P21453).
T5 construct: expressed in transfected cells; host or cells: HEK293
The experiment in a line: TGFα-shedding assay, S1P1. The following applies: for EC50: HEK293 cells, ligand 1 hour. In kind it is cell-based. The protocol: as §1

The target in experiment [3] is T6, S1P2 (Homo sapiens, UniProt O95136).
T6 construct: expressed in transfected cells; host or cells: HEK293
Description: TGFα-shedding assay, S1P2. In kind it is cell-based. The protocol: as §1

The target in a further experiment is T7, S1P3 (Homo sapiens, UniProt Q99500).
T7 construct: expressed in transfected cells; host or cells: HEK293
The experiment in a line: TGFα-shedding assay, S1P3. The experiment is classed as cell-based. The following applies: for EC50: HEK293 cells, ligand 1 hour. The method, then: as §1

A further experiment has as its target T8, S1P4 (Homo sapiens, UniProt O95977).
T8 construct: expressed in transfected cells; host or cells: HEK293
T8 sequence (O95977 1-384): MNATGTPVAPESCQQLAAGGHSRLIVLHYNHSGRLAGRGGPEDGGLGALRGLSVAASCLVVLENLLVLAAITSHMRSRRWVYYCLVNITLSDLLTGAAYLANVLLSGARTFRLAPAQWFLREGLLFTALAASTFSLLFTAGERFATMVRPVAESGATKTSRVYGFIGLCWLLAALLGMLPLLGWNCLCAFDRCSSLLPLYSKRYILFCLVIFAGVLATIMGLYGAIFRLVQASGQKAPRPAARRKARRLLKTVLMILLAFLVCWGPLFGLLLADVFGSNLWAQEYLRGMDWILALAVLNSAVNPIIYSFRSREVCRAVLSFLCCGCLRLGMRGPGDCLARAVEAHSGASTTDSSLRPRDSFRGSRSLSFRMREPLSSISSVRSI
The experiment in a line: TGFα-shedding assay, S1P4. In kind it is cell-based. The following applies: for EC50: HEK293 cells, ligand 1 hour. The protocol: as §1

Experiment [4] has as its system caspase 3/7 activity in C6 cells. Description: Caspase-Glo 3/7 assay in C6 cells. The experiment is classed as cell-based, rat. The protocol: Cells were plated in clear-bottom, black-walled 96-well plates at ~50% confluence, incubated overnight, then treated overnight with cisplatin in the presence of vehicle or 10 μM CYM-5478. Caspase activation was evaluated by Caspase-Glo 3/7 Assay System (Promega Corporation) per manufacturer’s instructions.

The next experiment deals with C6 cells. The experiment in a line: Cell death assay (propidium iodide exclusion) in C6 cells. In kind it is cell-based, rat. The method, then: Cell death was evaluated by propidium iodide exclusion assay. Cells were plated in 96-well plates at ~50% confluence, incubated overnight, then treated with cisplatin (67 μM) for 24 hours in the presence of vehicle or 10 μM CYM-5478. Cell were treated with Hoechst 33342 (1 mg/ml) and propidium iodide (0.3 mg/ml) for 20 minutes, washed with phosphate-buffered saline, then rapidly photographed with a Cytation 3 automated imager (Biotek Instruments, Inc.). % cell death reflects a ratio of propidium iodide-positive and Hoechst 33342-positive cells.

Experiment [5] deals with other S1P receptor subtypes. Description: TGFα-shedding assay, other S1P receptor subtypes (summary statement). In kind it is cell-based. The following applies: subtypes other than S1P2. The protocol:
as §1

The target in experiment [6] is T6, S1P2. The conditions noted are these: cited from earlier work.

T5 sequence (P21453 whole entry, species assumed): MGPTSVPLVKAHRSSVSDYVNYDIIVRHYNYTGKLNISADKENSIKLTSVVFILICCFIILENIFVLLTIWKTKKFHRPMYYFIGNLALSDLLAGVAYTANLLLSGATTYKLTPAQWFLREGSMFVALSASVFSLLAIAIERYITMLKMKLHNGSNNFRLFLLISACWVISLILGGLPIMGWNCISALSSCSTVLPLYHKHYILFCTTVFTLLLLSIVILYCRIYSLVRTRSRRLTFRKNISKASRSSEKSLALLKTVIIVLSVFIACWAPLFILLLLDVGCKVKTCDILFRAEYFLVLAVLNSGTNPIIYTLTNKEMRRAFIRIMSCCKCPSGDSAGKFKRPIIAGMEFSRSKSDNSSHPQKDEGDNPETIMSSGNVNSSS
T7 sequence (Q99500 whole entry, species assumed): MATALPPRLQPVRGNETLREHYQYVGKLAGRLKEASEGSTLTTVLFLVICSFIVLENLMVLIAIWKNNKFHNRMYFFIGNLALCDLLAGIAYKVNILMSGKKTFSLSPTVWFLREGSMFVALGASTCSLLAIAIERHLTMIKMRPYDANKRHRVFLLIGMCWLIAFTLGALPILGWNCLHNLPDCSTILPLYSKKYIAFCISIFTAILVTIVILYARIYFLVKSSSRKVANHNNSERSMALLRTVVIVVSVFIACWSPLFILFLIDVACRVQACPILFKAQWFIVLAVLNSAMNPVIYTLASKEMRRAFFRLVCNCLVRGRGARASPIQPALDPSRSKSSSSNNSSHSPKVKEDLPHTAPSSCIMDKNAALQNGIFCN
T6 sequence (O95136 whole entry, species assumed): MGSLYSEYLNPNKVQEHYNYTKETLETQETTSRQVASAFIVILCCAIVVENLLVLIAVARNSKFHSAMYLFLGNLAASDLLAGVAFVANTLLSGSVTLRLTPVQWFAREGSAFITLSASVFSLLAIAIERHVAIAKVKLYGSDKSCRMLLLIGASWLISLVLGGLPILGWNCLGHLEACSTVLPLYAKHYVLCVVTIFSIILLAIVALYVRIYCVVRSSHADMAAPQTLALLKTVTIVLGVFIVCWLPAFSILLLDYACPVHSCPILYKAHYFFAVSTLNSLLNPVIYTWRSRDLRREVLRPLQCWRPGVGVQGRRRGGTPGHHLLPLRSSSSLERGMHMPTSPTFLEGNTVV
T4 sequence (Q9H228 whole entry, species assumed): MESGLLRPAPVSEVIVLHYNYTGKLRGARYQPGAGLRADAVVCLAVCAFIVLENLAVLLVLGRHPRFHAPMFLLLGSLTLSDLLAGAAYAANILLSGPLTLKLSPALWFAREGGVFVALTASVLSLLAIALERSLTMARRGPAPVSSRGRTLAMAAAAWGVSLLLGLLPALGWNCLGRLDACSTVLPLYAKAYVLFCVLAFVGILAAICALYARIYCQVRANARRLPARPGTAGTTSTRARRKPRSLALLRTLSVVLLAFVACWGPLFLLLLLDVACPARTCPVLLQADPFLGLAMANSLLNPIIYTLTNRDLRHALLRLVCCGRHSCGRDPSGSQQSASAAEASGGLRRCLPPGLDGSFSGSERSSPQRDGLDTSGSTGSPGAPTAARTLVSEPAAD
T3 sequence (O95136 whole entry): as the sequence (O95136 whole entry, species assumed) above
T1 sequence (P21453 whole entry): as the sequence (P21453 whole entry, species assumed) above
T2 sequence (Q99500 whole entry): as the sequence (Q99500 whole entry, species assumed) above

Consider `OO` [H2O2, hydrogen peroxide], for which, in the experiment on C6 rat glioma cells (C6 cells, read-out: EC50 of hydrogen peroxide, + vehicle), the EC50 is 1.86 µM.

With `C[C@@H](N)[C@H]1CC[C@H](C(=O)Nc2ccncc2)CC1` [Y-27632], in the experiment on ROS in C6 cells, the “effect on CYM-5478-mediated attenuation of cisplatin-induced ROS” value is given as “complete attenuation of CYM-5478 activity” and the “effect on cisplatin-induced ROS” value is listed as “no effect on cisplatin-induced ROS”.

As to `CCN(CC)CCCC(C)Nc1nc(C)cc(Nc2ccc3nc(C)cc(N)c3c2)n1` (centres unmarked) [NSC23766], the “effect on cisplatin-induced ROS” value with ROS in C6 cells is listed as “phenocopied”.

Take JTE-013: the “effect of pre-treatment on CYM-5478-induced cell rounding” value in experiment [1] (pre-treatment 15 minutes before CYM-5478) is “similarly abrogated”. For the same compound, the “effect of pre-treatment on S1P-induced cell rounding” value in experiment [1] (pre-treatment 15 minutes before S1P (1 μM)) was “completely abrogated”. Also, in the experiment with ROS in C6 cells, the “effect on CYM-5478-mediated attenuation of cisplatin-induced ROS” value was “complete attenuation of CYM-5478 activity” and the “effect on cisplatin-induced ROS” value was “no effect on cisplatin-induced ROS”.

As to `CCCCCCCCCCCCC/C=C/[C@@H](O)[C@@H](N)COP(=O)(O)O` [S1P, sphingosine 1-phosphate], in experiment [1], the cell rounding response entry is “pronounced cytoskeletal rearrangement characterized by process retraction and cell rounding”. Moreover, the “internalization of S1P1-EGFP” value at S1P1-EGFP is reported as “largely internalized to cytoplasmic vesicles”. Besides, the “S1P-dependent reduction of NOX3 ROS, co-transfected S1P1” value in experiment [2] was “not observed”. Besides, the “S1P-dependent reduction of NOX3 ROS, co-transfected S1P3” value in experiment [2] is given as “not observed”. For the same compound, the “effect on NOX3 ROS generation, co-transfected S1P2” value in experiment [2] is given as “further attenuated”. Also, the “internalization of S1P3-EGFP” value at S1P3-EGFP was “largely internalized to cytoplasmic vesicles”. In addition, on S1P2-EGFP, the “internalization of S1P2-EGFP” value was “largely internalized to cytoplasmic vesicles”. The Emax on S1P5, at S1P2 [3], at S1P3 and on S1P4 was 100% throughout. Besides, the EC50 at S1P1 came to 0.115 µM; at S1P3, 0.0554 µM; on S1P4, 0.175 µM.

On to `N.N.[Cl][Pt][Cl]` [Cisplatin, cis-Diammineplatinum(II) dichloride], for which the EC50 in the experiment with C6 rat glioma cells (C6 cells, 72 hours, MTT, read-out: EC50 of cisplatin-mediated reduction in viability, + vehicle) turned out to be 1.34 µM. Also, in [4] (overnight), the “caspase 3/7 activity” value was “significant increase in caspase 3/7 activity”. Besides, the “ROS accumulation (CellROX fluorescence)” value in the experiment with ROS in C6 cells (cisplatin 20 μM, 24 hours) was “increase in ROS”. In the experiment with C6 cells (cisplatin 67 μM, 24 hours), the “increase in propidium iodide-positive cells” value is recorded as more than 3 fold.

Regarding `Cc1cc(C(=O)Cn2cc(C(F)(F)F)ccc2=O)c(C)n1Cc1ccccc1` [CYM-5478], the cell rounding response entry in experiment [1] is reported as “identical rounding response”. Also, the “efficacy against the other S1P receptor subtypes” value in [5] is “less than 25%”. Besides, the “lower potency against the other S1P receptor subtypes vs S1P2” value in [5] was found to be 10 fold. Also, the “increase in EC50 of cisplatin conferred by co-administration” value with C6 rat glioma cells (C6 cells, 10 μM CYM-5478) is on record as 3 fold. The “increase in viability in the presence of 10% fetal bovine serum” value in the experiment on C6 rat glioma cells (C6 cells, 10% fetal bovine serum (data not shown)) is recorded as “absent”. Further, the “effect on EC50 of cisplatin in the presence of 1 mM N-acetylcysteine” value in the experiment with C6 rat glioma cells (C6 cells, vs vehicle-treated) is “no significant difference”. Moreover, the “protection of C6 cells from exogenously administered ROS (hydrogen peroxide)” value with C6 rat glioma cells (presence vs absence of CYM-5478) is “equally sensitive”. Moreover, the “concentrations giving statistically significant, dose dependent increase in viability” value in the experiment with C6 rat glioma cells (serum-starved C6 cells, MTT) is “above 100 nM”. On S1P2-EGFP, the “internalization of S1P2-EGFP” value was “induced the internalization of S1P2-EGFP”. Also, the EC50 is more than 10 µM on S1P5 (HEK293 cells, ligand 1 hour); 1.69 µM on S1P1; 0.119 µM at S1P2 [3] (HEK293 cells, ligand 1 hour); 1.95 µM on S1P3; 0.723 µM at S1P2 [6] (Scripps Research Institute Molecular Screening Center HTS, ref http://pubchem.ncbi.nlm.nih.gov/assay/assay.cgi?aid=872, read-out: EC50 in the original screen); 0.78 µM at S1P2 [6] (read-out: EC50 in subsequent validation studies). The compound also yielded an EC50 at S1P4 of more than 10 µM. For the same compound, the “effect on cisplatin-induced caspase 3/7 activity” value in experiment [4] (co-administration of 10 μM CYM-5478) is “markedly attenuated”. The “effect on cisplatin-induced ROS” value with ROS in C6 cells is “significantly attenuated”. Moreover, at S1P1 (relative to S1P), the “S1P1 Emax” value is recorded as 24.2%. Also, at S1P2 [3] (relative to S1P), the “S1P2 Emax” value is recorded as 99.5%. The “S1P3 Emax” value on S1P3 (relative to S1P) turned out to be 20.8%. Moreover, the “effect on cisplatin-induced increase in propidium iodide-positive cells” value in the experiment with C6 cells (co-administration of 10 μM CYM-5478 with cisplatin 67 μM, 24 hours) is “attenuated”. For the same compound, the “change in propidium iodide-positive cells, treatment alone” value in the experiment with C6 cells (without cisplatin) is given as “no significant change”.

`c1ccc2c(c1)[I+]c1ccccc1-2` [DPI, diphenyleneiodonium]: the “effect on cisplatin-induced ROS” value with ROS in C6 cells is reported as “phenocopied”.

The record behind these values is paper PMC4832229 (Scientific Reports, 2016).
